Marks after values point to notes of the source that are not given here.
Tests used:
[1] = test system: hepatocyte growth factor (HGF); assay: RT-PCR expression of hair-related gene HGF in dermal papilla cells; type: cell-based; details: 1 μg/mL minoxidil, 18 hours
Experimental: (§1) RT-PCR (reverse transcription polymerase chain reaction) was conducted in order to investigate the effect on the expression of hair-related genes, insulin-like growth factor 1 (IGF-1), hepatocyte growth factor (HGF) and keratinocyte growth factor (KGF). Dermal papilla cells were seeded onto a 100-mm cell culture dish at a density of 80% and then cultured for 24 hours at 37° C. in a 5% CO2 incubator. DMEM (Dulbecco's modified Eagle's medium, BRL, USA) containing 10% bovine serum was used as a medium. After adding 100 μg/mL of a sample (Examples 1-1, 1-2, 1-3 and 1-4; Comparative Examples 1-1, 1-2 and 1-3; Examples 2-1, 2-2 and 2-3) or 1 μg/mL minoxidil as a positive control group, the cells were cultured for 18 hours and RNA was isolated by adding 1 mL of Trizol (Invitrogen, USA) according to the Promega's method. After quantifying RNA at 260 nm using a UV detector, RT-PCR was conducted. The RT-PCR was conducted using a RT-PCR kit (All-in-one RT-PCR kit, SuperBio, Korea) under the condition of 40 cycles of reverse transcription at 50° C. for 30 minutes followed by inactivation of reverse transcriptase at 96° C. for 3 minutes, 94° C. for 30 seconds, 58° C. for 30 seconds and 72° C. for 1 minute. The result was represented as percentage (%) of expression relative to the negative control group (Table 3).

[2] = test system: insulin-like growth factor 1 (IGF-1); assay: RT-PCR expression of hair-related gene IGF-1 in dermal papilla cells; type: cell-based; details: 1 μg/mL minoxidil, 18 hours
Experimental: as §1

[3] = test system: keratinocyte growth factor (KGF); assay: RT-PCR expression of hair-related gene KGF in dermal papilla cells; type: cell-based; details: 1 μg/mL minoxidil, 18 hours
Experimental: as §1

[4] = test system: C57BL/6 mice depilated on the back; assay: Animal experiment for hair growth-promoting effect in depilated mice; type: in vivo, mouse; details: 5 wt % minoxidil, 0.2 mL topical once a day
Experimental: The hair growth-promoting effect of the composition of the present disclosure was investigated using C57BL/6 mice. 49- to 51-day-old C57BL/6N mice, in the second […], were depilated completely on the back using wax. While applying 0.2 mL of Example 2-1 or 2-3 at a solid content of 1 wt % or 20 wt %, or 5 wt % minoxidil as a positive control group, diluted in water, once a day for 16 days, hair-growing effect was monitored. Distilled water was used as a negative control group. The hair growth index with time was evaluated by the 3-point scale (see Table 4).

Nc1cc(N2CCCCC2)nc(N)[n+]1[O-] [Minoxidil, minoxidil]
HGF expression relative to the negative control group [1]: 134.6%**
IGF-1 expression relative to the negative control group [2]: 119.0%**
KGF expression relative to the negative control group [3]: 120.2%**
Hair growth index (3-point scale) ([4]; Day 0): 0 points
Hair growth index (3-point scale) ([4]; Day 12): 1.22 ± 0.26 points
Hair growth index (3-point scale) ([4]; Day 16): 2.66 ± 0.23 points
